Test system: HIV-1 LTR-III G-quadruplex (FAM/TAMRA-labeled LTR-III)
Assay: FRET melting assay, LTR-III G4
Assay type: binding
Conditions: Table S1 primary screening, ligand:ODN 50:1, singlicate
Protocol: To evaluate stabilizing properties of the ligands in a complex with oligodeoxyribonucleotides (ODNs) melting with fluorescence registration was used. ODN (0.5 μM) (Table 1), labeled with 6-carboxyfluorescein (FAM) and 6-carboxytetramethylrhodamine (TAMRA) at the 5′- and 3′-end, respectively, were folded in lithium cacodylate buffer (10 mM, pH 7.4) with 100 mM KCl by heating at 95 °C for 5 min and gradually cooling to r.t. GFP chromophore analogs (5 mM solution in DMSO) were diluted with the same buffer to the final concentration of 25 μM and mixed with an equal volume of 0.5 μM ODN solution resulting in a molar ratio of 50:1 (total volume was 50 μL). For the titration experiments molar ratios of 20:1 and 2:1 were used. Samples were analyzed using DTprime qPCR system (DNA-Technology LLC, Moscow, Russia). Fluorescence was registered by detection of FAM emission at 520 nm upon excitation at 495 nm in the temperature range of 30–95 °C with 1 °C/min gradient. Tm was determined using the instrument software and ΔTm was calculated relative to ODN Tm in a buffer solution containing 0.25% (v/v) DMSO. The primary and secondary screening were carried out in singlicate and triplicate, respectively.

SMILES	LTR-III ΔTm [°C]
CC1=NC(=Cc2ccc(Br)c([N+](=O)[O-])c2)C(=O)N1C [SV 52.8]	0.6
CC(C)OC(=O)c1noc(=O)c(O)c1-c1cccc(C(F)(F)F)c1 [SA 305B]	-0.5
CC1=N/C(=C\c2ccccc2O[Si](c2ccccc2)(c2ccccc2)C(C)(C)C)C(=O)N1C [M 1586]	-0.3
CCC1=NC(=Cc2ccc(O[Si](c3ccccc3)(c3ccccc3)C(C)(C)C)cc2)C(=O)N1C [M 1557]	-0.1
COc1cc(/C=C2N=C(/C=C/c3c(F)c(F)nc(F)c3F)N(C)C\2=O)cc(OC)c1O [N 980]	1
CCN(CC)C(=S)Oc1ccc(C=C2N=C(c3ccccc3)N(C)C2=O)cc1 [M 2069]	-0.4
COc1ccc(C=CC2=NC(=Cc3cc(OC)ccc3OC)C(=O)N2C)cc1 [AI 118]	-0.1
CC1=CC(C)(C)N(C)c2ccc(C=C3N=C(C)N(CCCCO)C3=O)cc21 [N 141]	0.2
CCC(=O)C1=NC(=Cc2ccc(O)cc2)C(=O)N1C [M 2372в]	-0.2
CNc1ccc(C=C2N=C(C)N(C)C2=O)cc1N [M 1165]	0.9
COc1ccc(NC(=O)c2onc(C(=O)OC(C)C)c2-c2ccc(OC)cc2)cc1 [AL 45]	0.2
CC1=NC(=Cc2ccccc2O)C(=O)N1 [N 702.1]	0
CC1=NC(=Cc2cc(C(C)(C)C)c(O)c(C(C)(C)C)c2)C(=O)N1C [M 2273.1]	0.2
CC1=NC(=Cc2ccc(O[Si](c3ccccc3)(c3ccccc3)C(C)(C)C)c(O)c2)C(=O)N1C [M 1620]	0.4
O=C1NC(=S)SC1=Cc1cc(Br)c(O)c(Br)c1 [SAI 112]	0.3
CN1C(=O)C(=Cc2ccc(O)cc2)N=C1C=Cc1ccccc1F [ccA 18]	0.1

SMILES	LTR-III ΔTm [°C]
CC1=NC(=Cc2ccc(O)c(O)c2)C(=O)N1C [M 1583.7]	-1.4
CN1C=NC(=Cc2ccc(O[Si](c3ccccc3)(c3ccccc3)C(C)(C)C)cc2)C1=O [N 624]	-0.5
CC(C)OC(=O)c1noc(C(=O)NC2CCCCC2)c1-c1ccccc1 [SA 325E]	-0.6
CCN(CC)c1ccc(C=C2N=C(C=Cc3ccncc3)N(C)C2=O)cc1 [M 895]	0.8
COc1cc(O)ccc1/C=C1\N=C(C(=O)c2ccccc2)N(C)C1=O [N 1139]	0.6
COc1cc(O)ccc1C=C1N=C(Cc2ccccc2)N(C)C1=O [N 1135]	0
COc1ccc(O)c(C=C2N=C(C=Cc3cc(Br)c(O)c(Br)c3)N(C)C2=O)c1 [N 851B]	1.2
CCOC(=O)CN1C(=O)C(=Cc2ccccc2)N=C1C [SA 148]	-1.3
CCC1=NC(=Cc2ccc(O)cc2)C(=O)N1OC [M 316]	-0.3
CC1=NC(=Cc2ccc(N3CCCCC3)cc2)C(=O)N1C [N 665]	-0.3
CCC(=O)n1cc(C=C2N=C(CC)OC2=O)c2c(C)cccc21 [M 1977]	0
COc1ccc(-c2c(C(=O)OC(C)C)noc2C(=O)NCc2ccccn2)cc1 [SA 350C]	-0.6
CC(=O)Oc1ccc(C=C2N=C(C=Cc3ccccc3)N(C)C2=O)cc1 [M 1009A]	0.5
CC1=NC(=Cc2ccc(O)cc2O)C(=O)N1C [N 844.1]	-0.1
COc1cc(O)ccc1C=C1N=C(C=Cc2c(F)c(F)nc(F)c2F)N(C)C1=O [N 967]	0.8
CC1=NC(=Cc2ccc([N+](=O)[O-])c(O)c2)C(=O)N1C [SV 52.7]	-0.2
